According to the supplement of paper PMC10307832:

Key:
Test in all cases: relative viability (nuclei count vs DMSO), 5 days (fraction); higher = more cells survive
Pazopanib + OSI-027 = compound: Cc1ccc(Nc2nccc(N(C)c3ccc4c(C)n(C)nc4c3)n2)cc1S(N)(=O)=O [Pazopanib] + COc1cccc2cc(-c3nc([C@H]4CC[C@H](C(=O)O)CC4)n4ncnc(N)c34)[nH]c12 [OSI-027] (partner 0.5 µM)
How it was run: (§1)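 A single step with final 0.05% Triton X-100, 1% formaldehyde and 1 ug/ml Hoechst fixed the cells and stained nuclei 5 days after treatment. Lung cancer cell lines in 1536-well plates had been treated by pin tool the day after seeding with one drug alone or a fixed anchor-drug dose plus five library-drug doses (not always all listed) in √10 steps, and nuclei were counted on 4× images. Relative viability is the ratio of nuclei in treated wells to nuclei in vehicle wells, taken as the median of duplicate plates.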

Ponatinib + Pictilisib = compound: Cc1ccc(C(=O)Nc2ccc(CN3CCN(C)CC3)c(C(F)(F)F)c2)cc1C#Cc1cnc2cccnn12 [Ponatinib] + CS(=O)(=O)N1CCN(Cc2cc3nc(-c4cccc5[nH]ncc45)nc(N4CCOCC4)c3s2)CC1 [Pictilisib] (partner 1 µM)
How it was run: as §1

Ponatinib + Luminespib = compound: Cc1ccc(C(=O)Nc2ccc(CN3CCN(C)CC3)c(C(F)(F)F)c2)cc1C#Cc1cnc2cccnn12 [Ponatinib] + CCNC(=O)c1noc(-c2cc(C(C)C)c(O)cc2O)c1-c1ccc(CN2CCOCC2)cc1 [Luminespib] (partner 0.01 µM)
How it was run: as §1

Pazopanib + AZD7762 = compound: Cc1ccc(Nc2nccc(N(C)c3ccc4c(C)n(C)nc4c3)n2)cc1S(N)(=O)=O [Pazopanib] + NC(=O)Nc1cc(-c2cccc(F)c2)sc1C(=O)N[C@H]1CCCNC1 [AZD7762] (partner 0.2 µM)
How it was run: as §1

| Cell Line | relative viability (Pazopanib + OSI-027; first compound 0.01 µM) | relative viability (Pazopanib + OSI-027; first compound 0.03162 µM) | relative viability (Pazopanib + OSI-027; first compound 0.1 µM) | relative viability (Pazopanib + OSI-027; first compound 0.3162 µM) | relative viability (Pazopanib + OSI-027; first compound 1 µM) | relative viability (Ponatinib + Pictilisib; first compound 0.006325 µM) | relative viability (Ponatinib + Pictilisib; first compound 0.2 µM) | relative viability (Ponatinib + Luminespib; first compound 0.002 µM) | relative viability (Ponatinib + Luminespib; first compound 0.006325 µM) | relative viability (Ponatinib + Luminespib; first compound 0.06325 µM) | relative viability (Ponatinib + Luminespib; first compound 0.2 µM) | relative viability (Pazopanib + AZD7762; first compound 0.03162 µM) | relative viability (Pazopanib + AZD7762; first compound 0.1 µM) | relative viability (Pazopanib + AZD7762; first compound 0.3162 µM) | relative viability (Pazopanib + AZD7762; first compound 1 µM) | relative viability (Ponatinib + Pictilisib; first compound 0.002 µM) | relative viability (Ponatinib + Pictilisib; first compound 0.06325 µM) | relative viability (Pazopanib + AZD7762; first compound 0.01 µM) |
| --- | --- | --- | --- | --- | --- | --- | --- | --- | --- | --- | --- | --- | --- | --- | --- | --- | --- | --- |
| LCLC-97TM1 | 0.5 | 0.601 | 0.523 | 0.528 | 0.513 | 0.243 | 0.221 | 0.677 | 0.704 | 0.647 | 0.439 | 0.241 | 0.248 | 0.303 | 0.188 |  |  |  |
| LCLC-103H | 0.495 | 0.454 | 0.547 | 0.482 | 0.485 | 0.592 | 0.572 | 0.928 | 0.974 | 0.908 | 0.733 | 0.805 | 0.897 | 0.792 | 0.822 | 0.543 | 0.636 | 0.576 |
| LK-2 | 0.199 | 0.228 | 0.185 | 0.233 | 0.171 | 0.555 | 0.446 |  | 0.185 | 0.181 | 0.158 | 0.411 | 0.398 | 0.451 | 0.354 | 0.589 | 0.411 | 0.283 |
| LOU-NH91 | 0.701 | 0.753 | 0.719 | 0.781 | 0.728 | 0.567 | 0.521 | 0.317 | 0.318 | 0.393 | 0.404 | 0.758 | 0.78 | 0.836 | 0.815 | 0.554 | 0.512 | 0.653 |
| LU99A | 0.29 | 0.315 | 0.334 | 0.349 | 0.301 | 0.335 | 0.329 | 0.288 | 0.25 | 0.274 | 0.242 | 0.347 | 0.466 | 0.343 | 0.384 | 0.303 | 0.369 |  |
| LXF-289 | 0.815 | 0.774 | 0.805 | 0.77 | 0.843 | 0.795 | 0.777 | 0.598 | 0.661 | 0.774 | 0.641 | 1.15 | 1.12 | 1.11 | 1.06 | 0.737 | 0.883 | 1.26 |
| NCI-H23 | 0.559 | 0.617 | 0.648 | 0.643 | 0.637 | 0.592 | 0.44 |  | 0.22 | 0.211 | 0.196 | 0.257 | 0.221 | 0.374 | 0.271 | 0.588 | 0.571 | 0.223 |
| NCI-H322M | 0.531 | 0.646 | 0.533 | 0.636 | 0.607 | 0.522 | 0.536 | 1 | 1 | 0.843 | 0.716 | 0.539 | 0.617 | 0.617 | 0.669 | 0.523 | 0.53 | 0.559 |
